Source: publication PMC7402526, “An in vitro quantitative systems pharmacology approach for deconvolving mechanisms of drug-induced, multilineage cytopenias” (PLoS Computational Biology, 2020)

Legend:
[1] = test system: hematopoietic stem cells (HSCs); assay: Multi-lineage toxicity assay (MLTA), HSCs: concentration-response and QSP model fit; format: cell-based, human
Outline: (§1)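 Freeze-thawed primary human bone marrow CD34+ cells were grown in SFEM II with a multi-lineage cytokine cocktail, drug added day 0, six days at 37°C. Lineage counts came from 17-parameter flow with TruCount beads, vehicle-normalized per donor, then fitted by an Emax-based QSP model.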

[2] = test system: monocyte progenitors (monocyte prog); assay: MLTA, MonoP: concentration-response and QSP model fit; format: cell-based, human
Outline: (§2)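 Parameters come from fitting an Emax-based QSP model, with L1 regularization and Emax ranging 0–2, to vehicle-normalized, bead-corrected flow cytometry counts. Counts came from human bone marrow CD34+ cells treated from day 0 through a 6-day multi-lineage cytokine culture in SFEM II, using 2–7 donors per drug.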

monocytes (monocyte-lin) = assay: MLTA, Mono: concentration-response and QSP model fit; format: cell-based, human; details: Homo sapiens, Monocyte, 144 h
Outline: as §2

[3] = test system: neutrophils (neutrophil-lin); assay: MLTA, Neut: concentration-response and QSP model fit; format: cell-based, human; details: Homo sapiens, Neutrophil, 144 h
Outline: as §1

[4] = test system: early erythroid cells (Eryth I); assay: MLTA, ErythI: concentration-response and QSP model fit; format: cell-based, human
Outline: as §2

[5] = test system: late erythroid cells (Eryth II); assay: MLTA, ErythII: concentration-response and QSP model fit; format: cell-based, human; details: Homo sapiens, 144 h
Outline: as §1

[6] = test system: total dead cells (totalDeadCells); assay: MLTA, total dead cells concentration-response; format: cell-based; details: Homo sapiens, 144 h, 6 days, normalized to vehicle control, read-out: total_dead normalized cell count
Procedure: (§3) A custom optimized cytokine cocktail was developed using commercially available cytokines (Peprotech, New Jersey) to facilitate simultaneous multi-lineage differentiation and self-renewal of freeze-thawed primary human bone marrow-derived CD34+ cells in SFEM II media (cells and media from StemCell Technologies, Vancouver). Cultures were carried out in ultra-low attachment 96-well plates (Corning, New York) with test article added on day 0 and cultured at 37°C, 85% relative humidity, and 5% CO2 for six days before interrogating drug impact via 17-parameter flow cytometry.
(§4) The flow cytometry panel used to define hematopoietic subsets was composed of CD34-PECy7, CD90-PECY5, CD38-AF488, CD371-PE, CD45Ra-BV421, CD14-BV605, CD42b-AF647, CD10-PEDazzle594, CD235a-PerCPCy5.5 (BioLegend, California), CD15-BUV395, CD41a-APCH7, CD71-BV786 (BD Biosciences, California), and DAPI for dead cell exclusion (ThermoFisher, California). In short, Day 6 cells were harvested, FcR-blocked (FcR binding inhibitor, ThermoFisher), surface-stained, then analyzed in a buffer containing TruCount Control Beads using a BD LSR Fortessa SORP fitted with a high-throughput sampler (BD Biosciences, California). Data was analyzed in Diva 6.0.2 and exported to CSV where after all cell data was transformed to cell per mL then normalized on a per-donor basis to untreated control wells to determine drug impact.
(§5) Donor material was collected and cultured as described above. The number of replicate donor samples per drug ranged from 2–7 and varied per drug (S1 Table). Drug treatment was added at time 0 and cells were maintained in culture for 6 days. Concentrations tested for each drug compound are contained in S1 Table. Concentrations were selected to span a range that is clinically useful. Following treatment, cell populations were measured using flow cytometry. We extracted cell counts from flow cytometry data, normalized to bead counts, and corrected for well volume.
(§6) Each well was normalized to the average of six vehicle control wells. For drugs that were tested across multiple runs of the assay, vehicle-normalized donor data were pooled, and we used the average of these pooled data for further modeling. Normalized data used as model inputs are included in S1 Table.

[7] = test system: human bone marrow-derived CD34+ cells differentiated into multiple hematopoietic lineages; assay: MLTA, overall effects across hematopoietic lineages; format: cell-based; details: QSP model fit; EmaxT > 1.0 = cell-killing
Procedure: as §3, §4, §5, §6
We implemented drug effects using an Emax model for the drug’s effect on each cell type. The 13 maximum effect parameters (EmaxT,C) are unitless and can vary between 0 and 2 and where a subscript, C, represents one of the previously described 13 cell types. We adapted a traditional Emax model using the equations below. We interpreted EmaxT values less than or equal to one as anti-proliferative, and EmaxT values greater than one as indicating a cell-killing mechanism in addition to anti-proliferation. The relationships for these effects are included in the model using the following equations. Eq 2 describes the drug anti-proliferative effect in the net proliferation rate for a given cell type. Eq 3 describes the cell-killing EmaxCK effect.

[8] = cell-killing component, max(0, EmaxT-1)
[9] = QSP model fit of 6-day MLTA data

**Q.** Which results are given for `CC(=O)O[C@H]1C(=O)[C@@]2(C)[C@H]([C@H](OC(=O)c3ccccc3)[C@]3(O)C[C@H](OC(=O)[C@H](O)[C@@H](NC(=O)c4ccccc4)c4ccccc4)C(C)=C1C3(C)C)[C@]1(OC(C)=O)CO[C@@H]1C[C@@H]2O` [paclitaxel]?
**A.** EC50 ([1]; Homo sapiens, Hematopoietic stem cell, 144 h, QSP model fit of 6-day MLTA data): 62.3 nM; activity at 0.0002 µM ([1]; Homo sapiens, Hematopoietic stem cell, 144 h, dose 0.2 nM, 6 days, normalized to vehicle control, read-out: HSCs normalized cell count): 109%; activity at 0.001 µM ([1]; Homo sapiens, Hematopoietic stem cell, 144 h, dose 1 nM, 6 days, normalized to vehicle control, read-out: HSCs normalized cell count): 87.5%; activity at 0.005 µM ([1]; Homo sapiens, Hematopoietic stem cell, 144 h, dose 5 nM, 6 days, normalized to vehicle control, read-out: HSCs normalized cell count): 118%; activity at 0.025 µM ([1]; Homo sapiens, Hematopoietic stem cell, 144 h, dose 25 nM, 6 days, normalized to vehicle control, read-out: HSCs normalized cell count): 28.1%; activity at 0.1 µM ([1]; Homo sapiens, Hematopoietic stem cell, 144 h, dose 100 nM, 6 days, normalized to vehicle control, read-out: HSCs normalized cell count): 4.8%; activity at 0.5 µM ([1]; Homo sapiens, Hematopoietic stem cell, 144 h, dose 500 nM, 6 days, normalized to vehicle control, read-out: HSCs normalized cell count): 1.08%; activity at 2.5 µM ([1]; Homo sapiens, Hematopoietic stem cell, 144 h, dose 2500 nM, 6 days, normalized to vehicle control, read-out: HSCs normalized cell count): 1.34%; Emax ([1]; Homo sapiens, Hematopoietic stem cell, 144 h, parameter from QSP model fitting, read-out: Emax_drug_HSC): 119%; EmaxCK,HSC [1, 8]: 0.188 day⁻¹; EC50 ([2]; Homo sapiens, Monocyte, 144 h, QSP model fit of 6-day MLTA data, read-out: EC50MonoP): 24.8 nM; activity at 0.0002 µM ([2]; Homo sapiens, Monocyte, 144 h, dose 0.2 nM, 6 days, normalized to vehicle control, read-out: MonoPs normalized cell count): 102%; activity at 0.001 µM ([2]; Homo sapiens, Monocyte, 144 h, dose 1 nM, 6 days, normalized to vehicle control, read-out: MonoPs normalized cell count): 112%; activity at 0.005 µM ([2]; Homo sapiens, Monocyte, 144 h, dose 5 nM, 6 days, normalized to vehicle control, read-out: MonoPs normalized cell count): 89%; activity at 0.025 µM ([2]; Homo sapiens, Monocyte, 144 h, dose 25 nM, 6 days, normalized to vehicle control, read-out: MonoPs normalized cell count): 0.562%; activity at 0.1 µM ([2]; Homo sapiens, Monocyte, 144 h, dose 100 nM, 6 days, normalized to vehicle control, read-out: MonoPs normalized cell count): 0.118%; activity at 0.5 µM ([2]; Homo sapiens, Monocyte, 144 h, dose 500 nM, 6 days, normalized to vehicle control, read-out: MonoPs normalized cell count): 0.188%; activity at 2.5 µM ([2]; Homo sapiens, Monocyte, 144 h, dose 2500 nM, 6 days, normalized to vehicle control, read-out: MonoPs normalized cell count): 0.286%; Emax ([2]; Homo sapiens, Monocyte, 144 h, parameter from QSP model fitting, read-out: Emax_drug_MonoP): 156%; EmaxCK,MonoP [2, 8]: 0.556 day⁻¹; EC50 (monocytes (monocyte-lin); [9]): 30 nM; activity at 0.0002 µM (monocytes (monocyte-lin); dose 0.2 nM, 6 days, normalized to vehicle control, read-out: Mon normalized cell count): 90.9%; activity at 0.001 µM (monocytes (monocyte-lin); dose 1 nM, 6 days, normalized to vehicle control, read-out: Mon normalized cell count): 93.8%; activity at 0.005 µM (monocytes (monocyte-lin); dose 5 nM, 6 days, normalized to vehicle control, read-out: Mon normalized cell count): 77%; activity at 0.025 µM (monocytes (monocyte-lin); dose 25 nM, 6 days, normalized to vehicle control, read-out: Mon normalized cell count): 0.638%; activity at 0.1 µM (monocytes (monocyte-lin); dose 100 nM, 6 days, normalized to vehicle control, read-out: Mon normalized cell count): 0.419%; activity at 0.5 µM (monocytes (monocyte-lin); dose 500 nM, 6 days, normalized to vehicle control, read-out: Mon normalized cell count): 1.04%; activity at 2.5 µM (monocytes (monocyte-lin); dose 2500 nM, 6 days, normalized to vehicle control, read-out: Mon normalized cell count): 0.347%; Emax (monocytes (monocyte-lin); parameter from QSP model fitting, read-out: Emax_drug_Mono): 25.8%; EC50 [3, 9]: 25.1 nM; activity at 0.0002 µM ([3]; dose 0.2 nM, 6 days, normalized to vehicle control, read-out: Neut normalized cell count): 88.3%; activity at 0.001 µM ([3]; dose 1 nM, 6 days, normalized to vehicle control, read-out: Neut normalized cell count): 80.1%; activity at 0.005 µM ([3]; dose 5 nM, 6 days, normalized to vehicle control, read-out: Neut normalized cell count): 52.3%; activity at 0.025 µM ([3]; dose 25 nM, 6 days, normalized to vehicle control, read-out: Neut normalized cell count): 0.045%; activity at 0.1 µM ([3]; dose 100 nM, 6 days, normalized to vehicle control, read-out: Neut normalized cell count): 0.0394%; activity at 0.5 µM ([3]; dose 500 nM, 6 days, normalized to vehicle control, read-out: Neut normalized cell count): 0%; activity at 2.5 µM ([3]; dose 2500 nM, 6 days, normalized to vehicle control, read-out: Neut normalized cell count): 0%; Emax ([3]; parameter from QSP model fitting, read-out: Emax_drug_Neut): 21.4%; EC50 ([4]; Homo sapiens, 144 h, QSP model fit of 6-day MLTA data, read-out: EC50ErythI): 15.4 nM; activity at 0.0002 µM ([4]; Homo sapiens, 144 h, dose 0.2 nM, 6 days, normalized to vehicle control, read-out: ErythI normalized cell count): 124%; activity at 0.001 µM ([4]; Homo sapiens, 144 h, dose 1 nM, 6 days, normalized to vehicle control, read-out: ErythI normalized cell count): 112%; activity at 0.005 µM ([4]; Homo sapiens, 144 h, dose 5 nM, 6 days, normalized to vehicle control, read-out: ErythI normalized cell count): 83.5%; activity at 0.025 µM ([4]; Homo sapiens, 144 h, dose 25 nM, 6 days, normalized to vehicle control, read-out: ErythI normalized cell count): 2.87%; activity at 0.1 µM ([4]; Homo sapiens, 144 h, dose 100 nM, 6 days, normalized to vehicle control, read-out: ErythI normalized cell count): 0.445%; activity at 0.5 µM ([4]; Homo sapiens, 144 h, dose 500 nM, 6 days, normalized to vehicle control, read-out: ErythI normalized cell count): 0.574%; activity at 2.5 µM ([4]; Homo sapiens, 144 h, dose 2500 nM, 6 days, normalized to vehicle control, read-out: ErythI normalized cell count): 0.379%; Emax ([4]; Homo sapiens, 144 h, parameter from QSP model fitting, read-out: Emax_drug_ErythroidI): 147%; EmaxCK,ErythI [4, 8]: 0.466 day⁻¹; EC50 ([5]; QSP model fit of 6-day MLTA data, read-out: EC50ErythII): 20.2 nM; activity at 0.0002 µM ([5]; dose 0.2 nM, 6 days, normalized to vehicle control, read-out: ErythII normalized cell count): 90.9%; activity at 0.001 µM ([5]; dose 1 nM, 6 days, normalized to vehicle control, read-out: ErythII normalized cell count): 107%; activity at 0.005 µM ([5]; dose 5 nM, 6 days, normalized to vehicle control, read-out: ErythII normalized cell count): 56.5%; activity at 0.025 µM ([5]; dose 25 nM, 6 days, normalized to vehicle control, read-out: ErythII normalized cell count): 0.128%; activity at 0.1 µM ([5]; dose 100 nM, 6 days, normalized to vehicle control, read-out: ErythII normalized cell count): 0.0395%; activity at 0.5 µM ([5]; dose 500 nM, 6 days, normalized to vehicle control, read-out: ErythII normalized cell count): 0.0174%; activity at 2.5 µM ([5]; dose 2500 nM, 6 days, normalized to vehicle control, read-out: ErythII normalized cell count): 0.00196%; Emax ([5]; parameter from QSP model fitting, read-out: Emax_drug_ErythroidII): 7.1%; activity at 0.0002 µM ([6]; dose 0.2 nM): 105%; activity at 0.001 µM ([6]; dose 1 nM): 113%; activity at 0.005 µM ([6]; dose 5 nM): 115%; activity at 0.025 µM ([6]; dose 25 nM): 75.5%; activity at 0.1 µM ([6]; dose 100 nM): 47.5%; activity at 0.5 µM ([6]; dose 500 nM): 40.7%; activity at 2.5 µM ([6]; dose 2500 nM): 46.1%; EmaxT effects across cell types (overall statement) [7]: > 1.0
